Test results taken from patent US20140094461A1, “BIOMARKERS FOR HEDGEHOG INHIBITOR THERAPY” (priority 2011, published 2014).

Legend:
[1] = system: basal cell carcinoma (BCC); assay: Phase I dose escalation trial, adult BCC patients with PTCH or SMO mutations: clinical response; type: in vivo, human
Excerpt: In addition to the Hedgehog-activated medulloblastoma, basal cell carcinoma (BCC) is another cancer type that is mostly driven by mutations or genetic lesions of the Hedgehog pathway genes that lead to constitutive activation of the Hedgehog pathway. […] In an ongoing phase I, dose escalation trial of methyl-4′-trifluoromethoxy-biphenyl-3-carboxylic acid [6-(cis-2,6-dimethyl-morpholin-4-yl)-pyridin-3-yl]-amide, an Hedgehog signaling inhibitor antagonizing SMO, adult BCC patients were enrolled among patients with other solid tumors. Mutational analysis of PTCH1 and SMO by directly sequencing was performed to the archival tumor specimens collected at the time of diagnosis from the enrolled BCC patients. […] The method of the invention was used to determine the Hedgehog activation status of BCC tumors from these patients. With both the 5-gene and 8-gene models, the probability score of all 6 cases were above the pre-specified cut-off and therefore all were called Hedgehog-activated. Among these 6 patients, 2 achieved confirmed partial response on methyl-4′-trifluoromethoxy-biphenyl-3-carboxylic acid [6-(cis-2,6-dimethyl-morpholin-4-yl)-pyridin-3-yl]-amide treatment, 2 had stable disease for more than 6 month, and the other 2 patients discontinued methyl-4′-trifluoromethoxy-biphenyl-3-carboxylic acid [6-(cis-2,6-dimethyl-morpholin-4-yl)-pyridin-3-yl]-amide due to adverse events after less than 2 months of therapy which might be too brief to observe any clinical activities. […] The method of the invention can be used for identifying other types of tumor with the same underlining Hedgehog-mutation driven etiology that might preferentially benefit from a Hedgehog signaling inhibitor therapy.

medulloblastoma = assay: Phase I dose escalation trial, adult medulloblastoma patients: clinical response; type: in vivo, human
Excerpt: Adult cancer patients including patients with medulloblastoma, were enrolled into an ongoing phase I, dose escalation trial of methyl-4′-trifluoromethoxy-biphenyl-3-carboxylic acid [6-(cis-2,6-dimethyl-morpholin-4-yl)-pyridin-3-yl]-amide to evaluate safety and tolerability of methyl-4′-trifluoromethoxy-biphenyl-3-carboxylic acid [6-(cis-2,6-dimethyl-morpholin-4-yl)-pyridin-3-yl]-amide and assess maximally tolerated dose of methyl-4′-trifluoromethoxy-biphenyl-3-carboxylic acid [6-(cis-2,6-dimethyl-morpholin-4-yl)-pyridin-3-yl]-amide for adult patients. Archival FFPE tumor specimens collected prior to the start of the trial are available for analysis by the method of the invention from 3 enrolled medulloblastoma patients in this trial.
Based on the 8-gene and 5-gene predictive model, the method of the invention was used to determine the Hedgehog activation status in tumor for these 3 patients. The two responders were determined to have Hedgehog-activated tumor while the tumor from the non-responder was called non-Hedgehog-activated. In addition, the single genes, SPHK1, OTX2, SFRP1, PDLIM3, or SHROOM2 were each used to determine the Hedgehog activation status based on the pre-established cut-off for each of the genes. By each of the single gene, the same Hedgehog-activated and non-Hedgehog-activated calls were made to the two responders and one non-responder, respectively. Among the 3 patients, only one patient had adequate tumor tissue samples available for additional mutational analysis of the PTCH1 and SMO gene. […] Inactivating PTCH1 mutations have been identified as a major mechanism of constitutively activating Hedgehog pathway in medulloblastoma. Therefore, identification of this PTCH1 mutation provides a mechanistic basis for Hedgehog pathway activation and observed clinical activity against Hedgehog signaling inhibitor in this patient and further validates the finding by the method of the invention.

[2] = medulloblastoma patient 1, daily dose of 200 mg

## Cc1c(C(=O)Nc2ccc(N3C[C@@H](C)O[C@@H](C)C3)nc2)cccc1-c1ccc(OC(F)(F)F)cc1 [methyl-4′-trifluoromethoxy-biphenyl-3-carboxylic acid [6-(cis-2,6-dimethyl-morpholin-4-yl)-pyridin-3-yl]-amide]
[1]; of 6 BCC patients with PTCH or SMO mutations
  number of patients with stable disease for more than 6 month: 2 patients
[1]; of 6 BCC patients with PTCH or SMO mutations, all called Hedgehog-activated
  number of patients with confirmed partial response: 2 patients
[1]; of 6 BCC patients, after less than 2 months of therapy
  number of patients who discontinued due to adverse events: 2 patients
medulloblastoma; 3rd medulloblastoma patient, daily dose of 200 mg
  time of treatment until progression: 52 days
medulloblastoma; 3rd medulloblastoma patient, daily dose of 200 mg, non-Hedgehog-activated tumor
  clinical outcome: progressed rapidly
medulloblastoma; [2]
  duration of response before disease progression: 4 months
  time of treatment until partial response: 2 months
medulloblastoma; medulloblastoma patient 1, daily dose of 200 mg, Hedgehog-activated tumor
  tumor response by the RECIST criteria: partial response (PR)
medulloblastoma; metastatic medulloblastoma patient without measurable lesion, 1500 mg daily dose, Hedgehog-activated tumor, PTCH1 mutation
  response measured by positron emission tomography (PET): metabolic partial response
medulloblastoma; metastatic medulloblastoma patient, 1500 mg daily dose
  duration of metabolic partial response before disease relapse: 7 months
